In US8067456B2 (AEterna Zentaris GmbH, priority 2004, dated 2011):

Assays:
[1] = Metabolic stability in human liver microsomes; assay type: in vitro ADME; conditions: 37° C., NADPH
Method: (§1) The metabolic stability in relation to liver microsomes (species human, rat) was determined in accordance with the following description: the substances were incubated at a test concentration of 1 […] An HPLC MS/MS method was subsequently used to quantify the unmetabolized amount of starting compound relative to 100%.

castrated rats = assay: LH concentration suppression in the plasma of castrated rats; assay type: in vivo, rat; conditions: 19 mg/kg oral in Solutol HS15/1,2-propane-diol (3:1)
Method: The LH concentration in the plasma of castrated rats was measured using the rat luteinizing hormone (rLH) enzyme immunoassay (EIA) system ELISA (RPN 2562) from Amersham Pharmacia Biotech or of LH RIA-AH R002 rats; from Biocode-Hycel, Liege, Belgium. All other chemicals used were from commercial sources in the highest purity available.
10 days before the start of the test, male Sprague Dawley rats (Harlan Winkelmann, Germany) weighing 190-220 g were anesthetized with ether and castrated and provided with a silicone catheter for permanent blood sampling.
At the start of the test, before administration of the substance, blood samples were taken and the LH level determined. The substance was then administered orally in the desired concentration. The number of animals used in each group was 8. At the stated times, further blood samples were taken. The blood was collected in heparinized sample tubes on ice, and the plasma was obtained by centrifugation at 3000 g for 10 minutes. The plasma samples were stored at −20° C. until the LH concentration was measured by ELISA or RIA. The LH concentration was determined by an ELISA or RIA in duplicate determination in accordance with the manufacturer's (Amersham Pharmacia Biotech; Biocode-Hycel) instructions.
All the other data points for each individual animal were calculated as relative concentration compared with the LH concentration before treatment.

LHRH receptor [2] = biological target: T1, LHRH receptor (Rattus norvegicus, UniProt P30969); assay: LHRH receptor-ligand binding assay (membrane preparations from rat pituitary cells); conditions: competition with 0.05 nM [125I][D-Trp6]-LHRH, 90 min, 4° C., rat pituitary membranes
T1 construct: rat pituitary cells which naturally strongly express the LHRH receptor; from tissue; host or cells: rat pituitary cells (membrane preparation)
T1 sequence (P30969 1-327): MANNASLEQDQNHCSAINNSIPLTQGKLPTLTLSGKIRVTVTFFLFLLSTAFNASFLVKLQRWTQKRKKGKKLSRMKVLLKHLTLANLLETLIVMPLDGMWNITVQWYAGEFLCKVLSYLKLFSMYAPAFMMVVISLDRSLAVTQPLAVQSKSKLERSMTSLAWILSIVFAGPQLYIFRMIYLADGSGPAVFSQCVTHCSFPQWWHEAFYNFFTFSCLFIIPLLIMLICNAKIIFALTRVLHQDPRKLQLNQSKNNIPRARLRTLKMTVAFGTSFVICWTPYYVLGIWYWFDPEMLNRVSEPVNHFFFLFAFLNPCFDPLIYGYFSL
Method: Heterologous competition experiments were carried out using membrane preparations from rat pituitary cells which naturally strongly express the LHRH receptor. The ligand used in this case was [^125I][D-Trp^6]-LHRH in a concentration of 0.05 nM. Unlabeled [D-Trp^6]-LHRH was used in a concentration of 1 μM, or the test substance was used in the desired concentration, for competition. After an incubation time of 90 minutes at 4° C., the bound ligand was measured by scintillation (Halmos et al., Proc. Natl. Acad. Sci. USA, 1996, 93, 2398).
The result obtained was the percentage proportion of bound ligand in the presence of the competitor related to the specifically bound proportion of the control (see result for selected compounds in Table 3). EC50 values were calculated by nonlinear regression analysis of the competition plots.

[3] = Metabolic stability in rat liver microsomes; assay type: in vitro ADME; conditions: 37° C., NADPH
Method: as §1

NK2 (h) = biological target: T2, NK2 (h) (Homo sapiens, UniProt P21452); assay: NK2 receptor-ligand binding assay (Cerep); conditions: for nH: Hill coefficient of competition plot; for IC50 / Ki: ligand [Nle10]-NKA(4-10)
T2 construct: Cerep Assay 826-2h
T2 sequence (P21452 1-398): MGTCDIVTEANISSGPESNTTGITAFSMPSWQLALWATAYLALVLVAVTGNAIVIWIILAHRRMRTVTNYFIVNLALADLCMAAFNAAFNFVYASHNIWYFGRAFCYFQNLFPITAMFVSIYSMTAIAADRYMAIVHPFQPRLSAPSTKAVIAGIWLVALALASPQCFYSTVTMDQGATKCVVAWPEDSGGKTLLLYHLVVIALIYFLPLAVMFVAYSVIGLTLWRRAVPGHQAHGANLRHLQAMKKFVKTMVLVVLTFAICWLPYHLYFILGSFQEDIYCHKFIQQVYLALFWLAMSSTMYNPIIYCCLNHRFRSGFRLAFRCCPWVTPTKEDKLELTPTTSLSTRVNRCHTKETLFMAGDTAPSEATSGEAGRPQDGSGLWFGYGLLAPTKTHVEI
Method: (§2) Receptor affinities (IC50 values) of the compounds of the invention of the general formulae (I, Ia and Ib) were measured as described by E. Heuillet et al., J. Neurochem., 60: 868-876 (1993) and D. Aharony et al. Mol. Pharmacol, 44: 356-363 (1993) commercially by Cerep (Assay 826-1h on page 67 and Assay 826-2h on page 68 of the 2005 catalogue).
(§3) FIGS. 8-11 show competition plots measured in the NK1 and NK2 receptor-ligand binding assays with [Sar^9, Met(O2)^11]-SP for NK1 and [Nle^10]-NKA(4-10) for NK2, and the selected substances (68 and 76).

NK1 (h) = biological target: T3, NK1 (h) (Homo sapiens, UniProt P25103); assay: NK1 receptor-ligand binding assay (Cerep); conditions: for nH: Hill coefficient of competition plot; for IC50 / Ki: ligand [Sar9, Met(O2)11]-SP
T3 construct: Cerep Assay 826-1h
Method: as §2, §3

LHRH receptor [4] = biological target: LHRH receptor (Homo sapiens, UniProt P30968); conditions: prior art, N. Cho et al. J. Med. Chem. 41, 4190-4195 (1998); cited from earlier work
[5] = in vivo; cited from earlier work
[6] = Saturation solubility in water; assay type: physicochemical; conditions: water, thermodynamic from solid; maximum of 1% DMSO added, HPLC UV
Method: The saturation solubility in water was determined in accordance with the following description: to initiate dissolving of the substances and to improve the wetting of the samples, a maximum of 1% DMSO was added. The content was checked by using an HPLC UV method.

T3 sequence (P25103 whole entry): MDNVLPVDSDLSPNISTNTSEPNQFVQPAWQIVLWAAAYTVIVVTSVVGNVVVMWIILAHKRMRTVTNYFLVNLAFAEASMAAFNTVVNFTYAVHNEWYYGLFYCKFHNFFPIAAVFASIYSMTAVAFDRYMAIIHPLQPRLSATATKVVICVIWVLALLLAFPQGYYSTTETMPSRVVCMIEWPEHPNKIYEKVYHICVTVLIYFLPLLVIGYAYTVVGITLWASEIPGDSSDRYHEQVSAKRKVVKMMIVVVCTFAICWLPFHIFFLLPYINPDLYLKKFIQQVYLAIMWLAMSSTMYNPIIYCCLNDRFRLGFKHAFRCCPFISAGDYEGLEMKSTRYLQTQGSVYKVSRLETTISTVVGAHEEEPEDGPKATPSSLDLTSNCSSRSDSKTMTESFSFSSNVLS
Chain of LHRH receptor (Homo sapiens, UniProt P30968) (P30968 whole entry): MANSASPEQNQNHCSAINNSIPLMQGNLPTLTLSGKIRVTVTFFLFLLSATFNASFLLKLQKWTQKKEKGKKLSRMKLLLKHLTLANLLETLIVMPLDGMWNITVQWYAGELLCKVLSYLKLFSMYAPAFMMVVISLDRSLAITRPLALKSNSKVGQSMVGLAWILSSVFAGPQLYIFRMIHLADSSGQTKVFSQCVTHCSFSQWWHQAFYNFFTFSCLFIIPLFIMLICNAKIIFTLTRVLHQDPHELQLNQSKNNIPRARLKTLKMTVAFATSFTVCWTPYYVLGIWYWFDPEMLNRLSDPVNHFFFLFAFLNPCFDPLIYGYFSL

In the case of `CCC(C)[C@H](NC(=O)Cc1ccccc1F)C(=O)N[C@]1(C(=O)N[C@H](C(N)=S)C(C)CC)CCc2[nH]c3c(Cl)cc(F)cc3c2C1` (stereo partly drawn) [Compound 68, (R)-8-chloro-6-fluoro-3-{(S)-2-[2-(2-fluorophenyl)acetylamino]-3-methylpentanoylamino}-2,3,4,9-tetrahydro-1H-carbazole-3-carboxylic acid ((S)-2-methyl-1-thiocarbamoylbutyl)amide], the recovery at 10 μM [1] is reported as 75%, the “Relative LH concentration (%) (averages ± SEM compared with the concentration before treatment)” value (castrated rats; time 0 h) is reported as 95.0 ± 9.3% and the “Relative LH concentration (%) (averages ± SEM compared with the concentration before treatment)” value (castrated rats; time +4 h) is reported as 17.4 ± 3.3%. The “Relative LH concentration (%) (averages ± SEM compared with the concentration before treatment)” value (castrated rats; time +6 h) was 16.0 ± 1.5%, the “Relative LH concentration (%) (averages ± SEM compared with the concentration before treatment)” value (castrated rats; time +8 h) was 12.9 ± 1.0% and the “Relative LH concentration (%) (averages ± SEM compared with the concentration before treatment)” value (castrated rats; time +12 h) was 16.0 ± 2.6%. The “Relative LH concentration (%) (averages ± SEM compared with the concentration before treatment)” value (castrated rats; time +24 h) was 65.7 ± 10.8%, the “Relative LH concentration (%) (averages ± SEM compared with the concentration before treatment)” value (castrated rats; time +30 h) was 78.1 ± 7.7% and the “Relative LH concentration (%) (averages ± SEM compared with the concentration before treatment)” value (castrated rats; time −24 h (before treatment)) was 105.4 ± 12.7%. The EC50 (LHRH receptor [2]) was 1 nM, the recovery at 10 μM [3] was 80% and the nH (NK2 (h)) was 3.8. For the same molecule, the IC50 (NK2 (h)) was 1600 nM, the Ki (NK2 (h)) was 850 nM and the nH (NK1 (h)) was 2.0. The IC50 (NK1 (h)) was 1400 nM and the Ki (NK1 (h)) was 640 nM.

`CCC(C)[C@H](NC(=O)Cc1ccccc1F)C(=O)N[C@]1(C(=O)N[C@H](C(N)=S)C(C)CC)CCc2[nH]c3c(C(F)(F)F)cccc3c2C1` (stereo partly drawn) [Compound 76, (R)-3-{(S)-2-[2-(2-fluorophenyl)acetylamino]-3-methylpentanoylamino}-8-trifluoromethyl-2,3,4,9-tetrahydro-1H-carbazole-3-carboxylic acid ((S)-2-methyl-1-thiocarbamoylbutyl)amide] showed a recovery at 10 μM [1] of 84%, an EC50 (LHRH receptor [2]) of 0.27 nM and a recovery at 10 μM [3] of 69%. For the same molecule, the nH (NK2 (h)) was 2.3, the IC50 (NK2 (h)) was 1500 nM and the Ki (NK2 (h)) was 810 nM. The nH (NK1 (h)) was 2.3, the IC50 (NK1 (h)) was 1900 nM and the Ki (NK1 (h)) was 840 nM.

For `CC(C)OC(=O)c1cn(Cc2c(F)cccc2F)c2sc(-c3ccc(NC(=O)C(C)C)cc3)c(CN(C)Cc3ccccc3)c2c1=O` [Compound T-98475], the receptor affinity (LHRH receptor [4]) is listed as “high” and the bioavailability [5] is listed as “low”.

`CCC(C)[C@H](NC(=O)[C@@]1(NC(=O)[C@@H](NC(=O)OCc2ccccc2)C(C)CC)CCc2[nH]c3c(Cl)cc(Cl)cc3c2C1)C(N)=O` (stereo partly drawn) [Example 295 from WO 03/051837 A2, Benzyl {(S)-1-[(R)-3-((S)-1-carbamoyl-2-methylbutylcarbamoyl)-6,8-dichloro-2,3,4,9-tetrahydro-1H-carbazol-3-ylcarbamoyl]-2-methylbutyl]carbamate, reference compound] showed a recovery at 1 μM ([1]; 1 μM) of 0%, a solubility [6] of less than 0.05 µg/mL and a recovery at 1 μM ([3]; 1 μM) of 0%.
